According to publication PMC7395176, “Retromer stabilization results in neuroprotection in a model of Amyotrophic Lateral Sclerosis” (Nature Communications, 2020):

Key:
VPS35 = VPS35 (Mus musculus, UniProt Q9EQH3+Q9QZ88); experiment: Cycloheximide (CHX) chase assay of VPS35 degradation in Neuro2a cells; type: cell-based; set-up: We incubated Neuro2a cells with compounds 2a–6a (10 µM); endogenous in cells; host or cells: Neuro2a (ATCC CCL-131); conditions: 10 µM 24 h pretreatment, CHX up to 8 h
Protocol: We next measured VPS35 degradation rates by a cycloheximide (CHX) chase assay. Neuro2a cells received vehicle or compound 2a (10 µM) for 24 h, then CHX was added and VPS35 levels were measured by WB.
Cycloheximide (CHX) assay was done on Neuro2a cells seeded in 6-well plates and incubated with compound 2a (10 µM) or vehicle for 24 h. We next added CHX (Sigma–Aldrich) at 10 µg/mL and cells were collected at 0, 2, 4, and 8 h for the time-course assay of VPS35 levels by WB.
Compound 2a stabilizes VPS35 levels in Neuro2a cells
A cycloheximide (CHX) chase assay was performed to determine the degradation rate of VPS35 in Neuro2a cells (3x10^5 cells/well). Cells were treated with vehicle or 2a (10 µM) for 24 h, and then chased with CHX (10 µg/mL) for 2, 4 and 8h.
WBs for VPS35 and β-Actin levels. Quantifications of normalized VPS35 levels (means normalized ratios ± SEM versus the time 0) are shown inpanel b (vehicle: n=10 independent wells, 2a: n=8 independent wells obtained from 3 independent experiments; control vs. 2a at 8 hours: p=0.009). c, quantitative real time PCR for Vps35, Vps26 and Vps29 mRNA (Vps35: controls n=8 independent wells; 2a: n=9 independent wells; Vps26 and Vps29: n=9 independent wells/group); data were collected from 3 independent experiments. […]

GM130 = experiment: Golgi apparatus (GM130) in MNs of treated G93A mice; type: in vivo; conditions: 10 mg/kg, day 100
Source text: Ubiquitinated inclusions accumulate in MNs from sALS and fALS patients, and in ALS mice[51]. We characterized poly-ubiquitinated proteins in lumbar SCs protein extracts by 10% denaturating PAGE. Protein extracts from Neuro2a cells treated with the proteasome inhibitor Bortezomib (BTZ), able to increase poly-ubiquitination, were used as an experimental control[52] (Fig. 7a). […] We next scored ubiquitin MFI levels in ventral horn MNs of G93A mice. […] (Fig. 7c and d). We next scored the Golgi apparatus in G93A mice by labeling lumbar sections for the cis-Golgi matrix protein GM130[54]. […] (Fig. 7e).
Sections from mice or glass covers containing cells were washed three times in PBS 1× (Lonza, 5 min each), and incubated in the following blocking mix: PBS 1×/FBS 10% (Invitrogen), BSA 1 mg/mL (Sigma–Aldrich), TritonX100 0.1% (Sigma Aldrich), for 1 h at room temperature. Antibodies were diluted in blocking mix and incubated at +4 °C overnight according manufacturer’s instructions. The following day, sections were rinsed in PBS and fluorescent secondary antibodies—i.e. never deriving from the species from which the primary antibodies are derived- (Alexafluor conjugated) diluted in blocking mix, were used according to the manufacturer’s instructions. Slides were incubated in Hoechst 33342 (Sigma–Aldrich) for nuclei counterstaining. […]

NC(N)=N/N=C/c1cccc(/C=N/N=C(N)N)c1 [compound 2a, phenyl-1,3-bis-guanylhydrazone]
VPS35 degradation in CHX chase (VPS35): protected VPS35 from degradation
reduction of GM130-covered areas in MNs (Golgi fragmentation) (GM130): substantially reverted
